# Measurements as given in US20220348590A1, “CYCLOOXYGENASE-2 INHIBITORS AND USES THEREOF” (The Board Institute, Inc., priority 2019, published 2022).
# “Also recorded” adds a separate entry of the source.
# Key:
# [1] = Mouse Microsome Stability; format: in vitro ADME; conditions: mouse microsomes
# [2] = molecular target: T1, human recombinant COX2 (hCOX2) (UniProt P35354); test: LCMS-based COX2 enzymatic inhibition assay (PGE2 quantification); format: biochemical; parameters: improvement in potency; other: COX2 potency relative to MC1 / earlier ligand; comparator not always stated; other: vs MC1 (MC-1)
# T1 sequence (P35354 1-604): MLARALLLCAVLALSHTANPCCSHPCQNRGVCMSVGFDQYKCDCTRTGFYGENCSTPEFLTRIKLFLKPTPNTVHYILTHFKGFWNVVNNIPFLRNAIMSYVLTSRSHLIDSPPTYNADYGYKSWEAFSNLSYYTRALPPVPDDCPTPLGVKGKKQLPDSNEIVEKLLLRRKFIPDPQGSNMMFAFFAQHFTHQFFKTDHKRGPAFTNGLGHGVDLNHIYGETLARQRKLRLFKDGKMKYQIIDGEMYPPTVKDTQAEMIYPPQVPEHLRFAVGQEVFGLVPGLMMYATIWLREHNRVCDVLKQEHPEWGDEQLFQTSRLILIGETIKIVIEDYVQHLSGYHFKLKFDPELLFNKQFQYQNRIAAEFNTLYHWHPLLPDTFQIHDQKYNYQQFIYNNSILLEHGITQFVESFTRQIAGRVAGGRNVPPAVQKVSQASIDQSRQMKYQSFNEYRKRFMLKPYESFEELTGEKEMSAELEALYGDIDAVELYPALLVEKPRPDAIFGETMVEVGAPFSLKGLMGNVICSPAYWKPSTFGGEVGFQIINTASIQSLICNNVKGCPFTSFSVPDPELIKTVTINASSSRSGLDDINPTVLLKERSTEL
# Description: We have adapted a previously reported cyclooxygenase enzymatic assay utilizing LCMS quantification of PGE2 as the product of COX-1 and COX2 catalyzed conversion of arachidonic acid to evaluate the binding properties of newly synthesized ligands [Cao, 2011]. These optimized and miniaturized (384-well plates) LCMS-based COX-1 and COX2 enzymatic assays enabled us to quickly evaluate newly synthesized ligands for COX2 binding affinity and selectivity vs COX-1. Using a shorter ligand-enzyme incubation time in the LCMS assay (2 minutes vs 10 minutes) also permitted us to prioritize ligands with faster binding kinetics. Considering the relatively slow on-rate kinetics of known coxibs, due to their 3-step binding mechanism [Marnett, 2009], we believe that optimizing this critical parameter will be key to the successful development of a COX2 PET tracer. Using these enzymatic assays, we have evaluated>200 newly synthesized ligands against COX2 and >20 ligands against COX-1. Another critical property necessary for a good PET radiotracer is to have low non-specific binding (NSB) to increase the free fraction and maximize the signal to noise ratio. This property can be evaluated using in-vitro protein binding assays, and we have now evaluated>50 newly synthesized ligands in mouse, rat and human plasma protein binding (PPB) assays as well as >15 ligands in a mouse brain protein binding (BPB) assay.
# Ovine COX-1 (oCOX-1), ovine COX2 (oCOX2), human recombinant COX2 (hCOX2), arachidonic acid, PGE2, d4-PGD2, and […] (labeled with deuterium atoms at positions 3 and 4) were purchased from Cayman Chemicals (Ann Arbor, Mich.). The cofactors (−)epinephrine and hematin, and the COX inhibitors indomethacin, resveratrol and diclofenac were purchased from Sigma-Aldrich (St. Louis, Mo.). Celecoxib was purchased from 3B PharmaChem International (Wuhan, China). All organic solvents were HPLC grade or better and were purchased from Thermo Fisher (Hanover Park, Ill.). Formic acid was purchased from EMD Chemicals (San Diego, Calif.). Purified water was prepared by using a Millipore Milli-Q purification system (Millipore, Billerica, Mass.). All other chemicals and solvents were ACS reagent grade, unless stated otherwise.
# In an Eppendorf tube, 146 μL of 100 mM Tris.HCl (pH 8.0) buffer, 2 μL of 100 μM hematin (co-factor) and 10 μL of 40 mM L-epinephrine (co-factor) were mixed at room temperature. […]
# The concentration of PGE2 in each sample was measured using LC-MS-MS, and the percent of COX inhibition by each test solution was determined by comparing the amount of PGE2 produced in the experiment with that produced in the negative control incubation. The formation of PGD2 was measured for quality control purposes, since the levels of PGD2 should be proportional to those of PGE2. […]
Compound,Mouse Microsome Stability % Remaining Avg [1],"improvement in potency ([2]; COX2 potency relative to MC1 / earlier ligand, comparator not always stated)",potency / binding affinity compared to MC1 ([2]; vs MC1 (MC-1))
COc1ncc(NCc2cccs2)nc1-c1ccc(S(C)(=O)=O)cc1 [Compound 29],4.3%,,
"CS(=O)(=O)c1ccc(-c2cccc(NCc3ccoc3)n2)cc1 [Compound 47, N-(furan-3-ylmethyl)-6-(4-(methylsulfonyl)phenyl)pyridin-2-amine]",,~4 fold,
CS(=O)(=O)c1ccc(-c2cncc(NCc3cccs3)n2)cc1 [Compound 98],3%,,maintaining potency; also recorded: equivalent binding affinity
